According to US20220380378A1 (ESSA Pharma, Inc., priority 2021, published 2022):

Molecular target: T1, androgen receptor (AR) (Homo sapiens, UniProt P10275, T878A)
T1 sequence (P10275 1-920 T878A): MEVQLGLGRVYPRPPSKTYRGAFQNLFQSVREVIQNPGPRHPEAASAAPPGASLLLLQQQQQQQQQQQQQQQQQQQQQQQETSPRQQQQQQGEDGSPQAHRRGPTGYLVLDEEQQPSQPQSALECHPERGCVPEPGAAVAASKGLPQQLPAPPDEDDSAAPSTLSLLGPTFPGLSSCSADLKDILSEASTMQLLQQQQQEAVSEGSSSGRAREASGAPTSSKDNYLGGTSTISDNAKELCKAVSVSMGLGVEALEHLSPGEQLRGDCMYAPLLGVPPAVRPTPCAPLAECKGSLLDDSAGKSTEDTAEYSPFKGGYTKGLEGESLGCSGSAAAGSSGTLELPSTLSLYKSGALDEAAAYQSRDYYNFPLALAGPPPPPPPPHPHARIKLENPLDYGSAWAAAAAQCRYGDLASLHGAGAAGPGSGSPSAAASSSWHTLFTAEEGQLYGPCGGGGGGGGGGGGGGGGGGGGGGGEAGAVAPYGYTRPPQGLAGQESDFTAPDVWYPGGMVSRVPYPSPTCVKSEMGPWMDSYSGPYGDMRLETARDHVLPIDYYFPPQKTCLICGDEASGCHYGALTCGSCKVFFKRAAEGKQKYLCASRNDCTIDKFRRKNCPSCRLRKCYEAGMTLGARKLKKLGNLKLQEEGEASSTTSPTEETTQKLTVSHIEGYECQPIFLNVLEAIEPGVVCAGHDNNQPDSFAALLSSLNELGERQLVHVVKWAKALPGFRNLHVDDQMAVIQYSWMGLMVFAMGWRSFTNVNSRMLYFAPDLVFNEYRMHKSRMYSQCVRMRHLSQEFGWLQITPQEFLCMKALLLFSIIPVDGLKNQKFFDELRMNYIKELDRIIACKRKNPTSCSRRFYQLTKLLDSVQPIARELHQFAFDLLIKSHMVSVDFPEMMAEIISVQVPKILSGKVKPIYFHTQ
Assay: Androgen-induced PSA (6.1 kb)-luciferase reporter assay in LNCaP cells (R1881 1 nM)
Format: cell-based
Parameters: endogenous in cells; host or cells: LNCaP
Settings: 24 h, read-out: PSA-Luc IC50 Range
Procedure: The PSA (6.1 kb)-luciferase reporter contains functional AREs (androgen response elements) to which AR binds in response to androgen to induce luciferase activity. LNCaP cells were transiently transfected with the PSA (6.1 kb)-luciferase reporter for 24 h, and then pretreated with vehicle (DMSO) or indicated concentration of representative compounds for one hour prior to the addition of synthetic androgen, R1881 (1 nM). After 24 h of incubation with R1881, the cells were harvested, and relative luciferase activities were determined (FIG. 1). To determine the IC50, treatments were normalized to vehicle control activity induced by R1881 (Table 2).
Luciferase Assay: Cells were lysed using Passive Lysis Buffer (Promega) and then collected into V-bottom 96-well tissue culture plates. Lysates were centrifuged at 4° C. for 5 minutes at 3000 rpm. To measure luminescence of LNCaP cell lysates the Firefly Luciferase Assay System (Promega) was employed, according to manufacturer's protocol. Relative luminescence units (RLU) in cell lysates were detected for 10 seconds using Promega GloMax-Multi Detection Luminometer (Promega). Values were normalized to protein content. GraphPad Prism graphing software was used to calculate IC50 values.
Statistical analyses were performed using GraphPad Prism (Version 6.01 for Windows; La Jolla, Calif., USA). Comparisons between treatment and control groups were compared using Two-Way ANOVA with post-hoc Dunnett's and Tukey's tests. Differences were considered statistically significant at P values less than 0.05.

Compound	IC50 [nM]
CS(=O)(=O)NC1CCN(CCOc2ccc3c(ccn3-c3cc(Cl)c(OCCCl)c(C#N)c3)c2)CC1 [Compound A220]	> 2000
CC(C)(c1ccc(OCc2ncc(NS(C)(=O)=O)nc2N)cc1)c1cc(Cl)c(OCCCl)c(C#N)c1 [Compound A43]	< 500
CS(=O)(=O)Nc1nccc(COc2ccc3c(-c4cc(Cl)c(OCCCl)c(C#N)c4)cnn3c2)n1 [Compound A64]	> 2000
CS(=O)(=O)N1CCCC(COc2ccc3c(ccn3-c3cc(Cl)c(OCCCl)c(C#N)c3)c2)C1 (stereo not drawn) [Compound A56]	500 to 2000
CS(=O)(=O)N1CCC(COc2ccc3c(ccn3-c3cc(Cl)c(OCCCl)c(C#N)c3)c2)CC1 [Compound A55]	> 2000
CC(C)(c1ccc(-c2ccc3oc(NS(C)(=O)=O)nc3c2)cc1)c1cc(Cl)c(OCCCl)c(C#N)c1 [Compound A255]	500 to 2000
CC(C)(c1ccc(OCc2ccnc(NS(C)(=O)=O)n2)cc1)c1cc(Cl)c(NCCCl)c(C#N)c1 [Compound A66]	500 to 2000
CC(C)(c1ccc(OCc2ccnc(NS(C)(=O)=O)n2)cc1)c1cc(Cl)c(N2CC3(CCC3)C2)c(C#N)c1 [Compound A267]	500 to 2000
CC(C)(c1ccc(OCc2ccnc(NS(C)(=O)=O)n2)cc1)c1cnc(N2CC3(CCC3)C2)c(C#N)c1 [Compound A166]	> 2000
CC1(NS(C)(=O)=O)CN(CCc2ccc3c(ccn3-c3cc(Cl)c(OCCCl)c(C#N)c3)c2)C1 [Compound A244]	> 2000
CS(=O)(=O)N1CCCC(Oc2ccc3c(ccn3-c3cc(Cl)c(OCCCl)c(C#N)c3)c2)CC1 (stereo not drawn) [Compound A202]	> 2000
CC1CN(c2c(F)cc(C(C)(C)c3ccc(OCc4ccnc(NS(C)(=O)=O)n4)cc3)cc2C#N)C1 [Compound A252]	500 to 2000

Further lines, results first:

IC50 [nM]	Compound
500 to 2000	CS(=O)(=O)N[C@H]1CC[C@H](Oc2ccc3c(ccn3-c3cc(Cl)c(OCCCl)c(C#N)c3)c2)CC1 [Compound A242]
500 to 2000	CS(=O)(=O)Nc1nccc(COc2ccc3c(ccn3-c3cc(Cl)c(OC=C(Cl)Cl)c(C#N)c3)c2)n1 [Compound A128]
> 2000	CCNc1ncc2cc(-c3ccc(C(C)(C)c4cc(Cl)c(OCCCl)c(C#N)c4)cc3)ccc2n1 [Compound A176]
500 to 2000	CS(=O)(=O)Nc1nccc(COc2ccc3c(ccn3-c3cc(C#N)c(OCCCl)c(C(F)(F)F)c3)c2)n1 [Compound A21]
> 2000	CC(C)(c1ccc(OCc2ccnc(NS(C)(=O)=O)n2)cc1)c1cc(Cl)c(-c2cccc(Cl)c2)c(C#N)c1 [Compound A1]
> 2000	CC(C)(c1ccc(-c2cc3cnc(NS(C)(=O)=O)nn3c2)cc1)c1cc(Cl)c(OCCCl)c(C#N)c1 [Compound A263]
500 to 2000	CC(C)(c1ccc(-c2n[nH]c3nc(NS(C)(=O)=O)ncc23)cc1)c1cc(Cl)c(OCCCl)c(C#N)c1 [Compound A203]
500 to 2000	CS(=O)(=O)N1CCN(CCOc2ccc3c(ccn3-c3cc(Cl)c(OCCCl)c(C#N)c3)c2)CC1 [Compound A206]
> 2000	CS(=O)(=O)N1CCN(Cc2ccc3c(ccn3-c3cc(Cl)c(OCCCl)c(C#N)c3)c2)CC1 [Compound A123]
500 to 2000	Cn1nc(NC(=O)C(F)(F)F)cc1COc1ccc(C(C)(C)c2cc(Cl)c(OCCCl)c(C#N)c2)cc1 [Compound A127]
> 2000	CS(=O)(=O)Nc1nccc(COc2ccc3c(-c4cc(Cl)c(OCCCl)c(C#N)c4)ncnc3c2)n1 [Compound A18]
500 to 2000	CC(C)(c1ccc(OCc2cnc(NS(C)(=O)=O)nc2N2CCCCC2)cc1)c1cc(Cl)c(OCCCl)c(C#N)c1 [Compound A99]
500 to 2000	CC(C)(c1ccc(-c2cnc3c(c2)OCCN3S(C)(=O)=O)cc1)c1cc(Cl)c(OCCCl)c(C#N)c1 [Compound A229]
500 to 2000	CC(C)(c1ccc(OCc2ccnc(NS(C)(=O)=O)n2)cc1)c1cc(F)c(N2CCC2)c(C#N)c1 [Compound A251]
500 to 2000	CC(C)(c1ccc(-c2ccc3sc(NS(C)(=O)=O)nc3c2)cc1)c1cc(Cl)c(OCCCl)c(C#N)c1 [Compound A275]
